In PMC6272399, “Anti-Proliferative Effect and Induction of Apoptosis in Androgen-Independent Human Prostate Cancer Cells by 1,5-Bis(2-hydroxyphenyl)-1,4-pentadiene-3-one” (Molecules, 2015):

Columns and labels:
PC-3 cells [1] = experiment: MTT cytotoxicity (cell viability) assay, PC-3; type: cell-based, human; conditions: for EC50: Homo sapiens, PC-3, MTT, 72 h treatment, mean ± SD, three experiments, read-out: EC50 Values (µM) of Compounds on Cell Lines PC-3; for dose from which decrease in cell viability is significant: PC-3, MTT, vs untreated; for Selective index (SX) WI-38 vs PC-3: SX = EC50 (WI-38)/EC50 (PC-3) × 100; for Selective index (SX) WRL68 vs PC-3: SX = EC50 (WRL68)/EC50 (PC-3) × 100
Protocol: (§1) Cell viability was determined by the MTT [3-(4,5-dimethylthiazol-2-yl)-2,5-diphenyltetrazolium bromide] assay, as previously described by Mosmann with modifications. Briefly, cells were detached from the tissue culture flask and pelleted by centrifugation at 1000 rpm for 5 min. Then, the density of the viable cells was counted using a haemocytometer. Cells were then plated in a 96-well flat bottom micro-titer plate (Nunc) at a concentration of 10^4 cells/mL and incubated in a 5% CO2 incubator at 37 °C overnight to allow the cells to adhere to the bottom of the wells. After 24 h, the media was aspirated off and replaced with fresh media containing sample compounds (curcumin and curcumin analogues) of seven different concentrations ranging from 1.56 µM–100 µM and incubated at 37 °C, 5% CO2 for 72 h. Separately, the sample compounds were prepared in a stock solution of 50 mM in 100% dimethyl sulfoxide (DMSO, Molecular Biology Grade, Sigma-Aldrich, St. Louis, MO, USA) and diluted in the culture media to a working concentration of 200 µM. Curcumin, the parent compound which was used as the positive control was also prepared in the similar manner. A two-fold serial dilution was done for each sample in triplicates down the columns of the plate, yielding a final volume and concentration of 100 µL in 0.2% DMSO in each wells. Following treatment, 50 µL MTT solutions (0.5 mg/mL in PBS) was added to each well and incubated for another 4 h at 37 °C in a humidified 5% CO2 incubator. The supernatant was replaced with 100 µL of DMSO and the optical density (OD) was measured at 570/650 nm using a micro-plate ELISA reader (Bio-Rad Laboratories, Hercules, CA, USA). The percentage of viable cells was calculated based on the ratio of the corrected absorbance of sample-treated cells to the corrected absorbance of the control (0.2% DMSO-treated cells) multiplied by 100. The percentage of cell viability was determined as follows: % Cell viability= OD of treated cells /OD of control ×100
(§2) For each compound tested, the EC50 value was generated from the log dose-response curves for each cell line using the Graphpad Prism version 5.04 for Windows (Graphpad Software, La Jolla, CA, USA). […] Cytotoxicity of each tested compound is expressed as the EC50 value. Based on the EC50 values, selectivity index (SX) value was also determined. Selectivity index is a special parameter applied as a selectivity indicator of tested compounds towards cancer cells. The SX represents the ratio of EC50 value obtained in toxicity testing using the normal cell lines to the EC50 values of the toxicity testing of the cancer cells, and then multiplied by 100. All the compounds were assessed for their potential toxicity against normal, non-cancerous cells. […] The SX values were calculated using the following equation: SX = EC50 (normal cells)/EC50 (cancer cells) × 100

DU 145 cells [2] = experiment: MTT cytotoxicity (cell viability) assay, DU 145; type: cell-based, human; conditions: for dose from which decrease in cell viability is significant: DU 145, MTT, vs untreated; for EC50: Homo sapiens, DU-145, MTT, 72 h treatment, mean ± SD, three experiments, read-out: EC50 Values (µM) of Compounds on Cell Lines DU 145; for Selective index (SX) WI-38 vs DU 145: SX = EC50 (WI-38)/EC50 (DU 145) × 100; for Selective index (SX) WRL68 vs DU 145: SX = EC50 (WRL68)/EC50 (DU 145) × 100
Protocol: as §1, §2

[3] = test system: WI-38 (human lung fibroblast cells); experiment: MTT cytotoxicity assay, normal WI-38; type: cell-based; conditions: normal cell line, 72 h treatment, mean ± SD, read-out: EC50 Values (µM) of Compounds on Cell Lines WI-38
Protocol: as §1, §2

[4] = test system: WRL 68 (human epithelial hepatocytes); experiment: MTT cytotoxicity assay, normal WRL 68; type: cell-based; conditions: WRL68, normal cell line, 72 h treatment, mean ± SD, read-out: EC50 Values (µM) of Compounds on Cell Lines WRL-68
Protocol: as §1, §2

PC-3 cells [5] = experiment: BrdU cell proliferation assay, PC-3; type: cell-based, human; conditions: PC-3, BrdU
Protocol: (§3) The anti-proliferative effects of compound on treated cells, was measured using the BrdU cell proliferation assay kit (Roche Applied Science Diagnostics, Indianapolis, IN, USA) according to the manufacturer’s protocol. The assay was based on incorporation of BrdU during DNA synthesis in proliferating cells. Cells were plated at a concentration of 10^4 cells/mL in a 96-well microtiter plate and incubated overnight. The cells were treated with compounds and curcumin (concentrations ranging from 1.56 µM–100 µM) as positive control for 24, 48 and 72 h respectively. Then, BrdU labeling solution (5 µL, diluted by 1/100 in culture media) was added to each well and incubated for 2 h at 37 °C. The media was replaced with fix/denaturing solution (100 µL) and incubated for 30 min at room temperature. Then, the fix/denaturing solution was removed by tapping off and followed by addition of 50 µL anti-BrdU antibody (50 µL, diluted by 1/100 in dilution buffer) to each well and further incubated for another 90 min at room temperature. Next, the cells were washed 3 times with wash buffer and substrate solution (50 µL) was added to each well. The plate was left for 10 min at room temperature in the dark and the absorbance was measured at a wavelength of 370 nm with a reference wavelength of 492 nm using a micro-plate ELISA reader (Bio-Rad). The percentage of BrdU incorporation was determined based on the ratio of absorbance of sample treated-cells to absorbance of control (untreated cells/DMSO only) multiplied by 100.

DU 145 cells [6] = experiment: BrdU cell proliferation assay, DU 145; type: cell-based, human; conditions: DU 145, BrdU
Protocol: as §3

[7] = test system: caspase-3 activity in PC-3 cells; experiment: Caspase-3 colorimetric activity assay, PC-3; type: cell-based, human; conditions: PC-3, all time points, inhibitor control
Protocol: (§4) Caspase-3 activity was determined using the caspase-3 colorimetric assay kit (Sigma-Aldrich) according to manufacturer’s protocol. The assay is based on spectrophotometric detection of p-nitroanilide (pNA) a colored molecule, after its cleavage from the labeled substrate DEVD-pNA by the activity of caspase-3 enzyme. PC-3 and DU 145 cells were treated with MS17 at different concentrations (EC50, 2 × EC50, 3 × EC50) at various time points, 6, 12, 24, 48 and 72 h as appropriate. Following treatment, cells were washed with PBS and suspended with lysis buffer (50 mM HEPES, pH 7.4, 5 mM CHAPS, 5 mM DTT) for 30 min on ice at the concentration of 10^7 cells per 100 µL buffer. Cells were then spun for 30 min at 16,000× g, 4 °C. Protein lysate concentrations were measured based on the Bradford assay method using the Cayman Chemical protein determination kit (Cayman Chemical Company, Ann Arbor, MI, USA) based on the manufacturer’s protocol. Assay was performed on a 96-well micro-titer plate by adding equal amount of protein lysate (~100 µg) into wells containing the assay buffer (20 mM HEPES pH 7.4, 0.1% CHAPS, 5 mM DTT, 2 mM EDTA). Reaction was started by the addition of 10 µL of substrate Ac-DEVD-pNA (2 mM). The effect of Ac-DEVD-CHO, a caspase-3 inhibitor was also studied simultaneously on caspase-3 activity. Ten microliter of the inhibitor (200 µM) was added into the wells containing the protein lysate, assay buffer and the substrate. Caspase-3 activity was measured upon the release of pNA molecule, a pale yellow colored product using the micro-plate ELISA reader (Bio-Rad) at the wavelength of 405 nm. Relative caspase-3 activity was expressed as absorbance of enzyme activity compared with the control (untreated cells/DMSO only) based on the equation below: Relative caspase 3 activity= Absorbance of treated cells /Absorbance of control

[8] = test system: caspase-3 activity in DU 145 cells; experiment: Caspase-3 colorimetric activity assay, DU 145; type: cell-based, human; conditions: DU 145, all time points, inhibitor control
Protocol: as §4

| Compound | EC50 (PC-3 cells [1]) [µM] | dose from which decrease in cell viability is significant (PC-3 cells [1]) [µM] | Selective index (SX) WI-38 vs PC-3 (PC-3 cells [1]) | Selective index (SX) WRL68 vs PC-3 (PC-3 cells [1]) | dose from which decrease in cell viability is significant (DU 145 cells [2]) [µM] | EC50 (DU 145 cells [2]) [µM] | Selective index (SX) WI-38 vs DU 145 (DU 145 cells [2]) | Selective index (SX) WRL68 vs DU 145 (DU 145 cells [2]) | EC50 [3] [µM] | EC50 [4] [µM] | concentration from which anti-proliferative activity is significant (PC-3 cells [5]; 24 h) [µM] | concentration from which anti-proliferative activity is significant (PC-3 cells [5]; 48 h) [µM] | concentration from which anti-proliferative activity is significant (PC-3 cells [5]; 72 h) [µM] | concentration from which anti-proliferative activity is significant (DU 145 cells [6]; 24 h) [µM] | concentration from which anti-proliferative activity is significant (DU 145 cells [6]; 48 h) [µM] | concentration from which anti-proliferative activity is significant (DU 145 cells [6]; 72 h) [µM] | relative caspase-3 activity with caspase-3 inhibitor [7] | relative caspase-3 activity with caspase-3 inhibitor [8] |
| --- | --- | --- | --- | --- | --- | --- | --- | --- | --- | --- | --- | --- | --- | --- | --- | --- | --- | --- |
| COc1cc(/C=C/C(=O)CC(=O)/C=C/c2ccc(O)c(OC)c2)ccc1O [Curcumin, diferuloylmethane, reference compound] | 35.9 ± 2.9 | 50 | 77.5 | 79.8 | 50 | 32.5 ± 1.4 | 85.8 | 88.2 | 27.9 ± 2.9 | 28.7 ± 3.2 | 50 | 50 | 50 | 50 | 50 | 50 |  |  |
| COc1cc(C=CC(=O)C=Cc2ccc(O)c(OC)c2)ccc1O [MS13, 1,5-bis(4-hydroxy-3-methoxyphenyl)-1,4-pentadiene-3-one] | 7.5 ± 0.1 | 6.3 | 124.8 | 115.1 | 12.5 | 7.4 ± 2.6 | 127.2 | 117.3 | 9.4 ± 2.3 | 8.7 ± 0.2 | 12.5 | 12.5 | 12.5 | 12.5 | 12.5 | 25 |  |  |
| O=C(C=Cc1cccc(F)c1)C=Cc1cccc(F)c1 [MS40E, 1,5-bis(3-fluorophenyl)-1,4-pentadiene-3-one] | 28 ± 7.8 | 50 | 101.4 | 108.3 | 50 | 30.3 ± 1.9 | 93.5 | 100.0 | 28.4 ± 1.7 | 30.3 ± 2 | 50 | 50 | 50 | 50 | 50 | 50 |  |  |
| O=C1C(=Cc2cccc(F)c2)CCCC1=Cc1cccc(F)c1 [MS49, 2,6-bis(3-fluorobenzylidene)cyclohexanone] | 14.5 ± 1.2 | 12.5 | 134.3 | 90.4 | 25 | 12.3 ± 2.3 | 158.6 | 106.8 | 19.4 ± 7 | 13.1 ± 0.4 | 25 | 25 | 25 | 25 | 25 | 50 |  |  |
| Ac-DEVD-CHO [reference compound] |  |  |  |  |  |  |  |  |  |  |  |  |  |  |  |  | relatively low expression levels | relatively low expression levels |
